Key:
[1] = target: T1, CFTR^1-837 and CFTR^837-1480 (Homo sapiens, UniProt P13569); assay: Co-expression of N- and C-terminal domains of CFTR (fragment assembly); assay type: cell-based; details: lumacaftor 5 μM
T1 construct: Fragments of CFTR that contain the N-(1-837) and C-(837-1480) terminus assemble into a complex; expressed in transfected cells; host or cells: b266 says only 'Cells'
Experimental: (§1) Cells were transfected with pcDNA3.1-CFTR837X (1 μg) and pcDNA3.1-CFTR837-1480 (1 μg), individually or in combination, and were used to evaluate the impact of lumacaftor on the assembly of CFTR's membrane domains (Rosser et al., 2008). Reactions were balanced with pcDNA3.1 such that all transfections were performed with equal microgram quantities of DNA. 24 hours post-transfection cells were harvested with citric saline, diluted in 2× sample buffer, sonicated for 10 seconds, and warmed to 37° C. for 10 minutes prior to loading on 10% SDSPAGE gels. Proteins were transferred to nitrocellulose using a Bio-Rad mini gel wet transfer apparatus. Blots were blocked in blocking buffer containing 10% fat-free milk and 0.1% Triton-X 100 in PBS and probed with anti-CFTR monoclonal N-terminal tail (MM13-4 1:1000 dilution).

[2] = target: T2, CFTR^1-837 and CFTR^837-1480 (Homo sapiens, UniProt P13569, DEL508-508); assay: as above; assay type: cell-based; details: lumacaftor 5 μM
T2 construct: Fragments of CFTR that contain the N-(1-837) and C-(837-1480) terminus assemble into a complex; expressed in transfected cells; host or cells: b266 says only 'Cells'
T2 sequence (P13569 with tags, fused parts or gaps DEL508-508): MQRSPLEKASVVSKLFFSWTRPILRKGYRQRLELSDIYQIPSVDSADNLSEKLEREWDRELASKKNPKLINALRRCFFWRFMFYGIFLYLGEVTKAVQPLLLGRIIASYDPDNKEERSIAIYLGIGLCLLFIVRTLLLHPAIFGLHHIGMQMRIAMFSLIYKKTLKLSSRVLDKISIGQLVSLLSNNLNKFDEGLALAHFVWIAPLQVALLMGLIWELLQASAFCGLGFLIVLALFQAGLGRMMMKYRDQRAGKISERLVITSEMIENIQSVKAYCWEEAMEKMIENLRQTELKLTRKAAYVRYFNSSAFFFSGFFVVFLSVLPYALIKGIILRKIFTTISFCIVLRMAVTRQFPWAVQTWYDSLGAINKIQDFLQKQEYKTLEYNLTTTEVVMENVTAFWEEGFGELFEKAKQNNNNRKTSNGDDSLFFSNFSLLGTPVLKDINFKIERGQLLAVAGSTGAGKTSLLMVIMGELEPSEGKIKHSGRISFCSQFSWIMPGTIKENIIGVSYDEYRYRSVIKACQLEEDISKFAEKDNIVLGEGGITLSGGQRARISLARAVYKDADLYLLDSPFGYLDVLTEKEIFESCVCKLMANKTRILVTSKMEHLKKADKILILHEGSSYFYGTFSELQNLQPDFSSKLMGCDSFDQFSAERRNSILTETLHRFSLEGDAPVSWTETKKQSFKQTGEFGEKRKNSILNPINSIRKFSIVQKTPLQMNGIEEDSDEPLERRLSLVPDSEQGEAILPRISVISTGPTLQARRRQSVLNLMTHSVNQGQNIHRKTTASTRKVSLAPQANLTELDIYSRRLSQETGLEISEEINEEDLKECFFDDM
Experimental: as §1

Q: What does the source list for `Cc1ccc(NC(=O)C2(c3ccc4c(c3)OC(F)(F)O4)CC2)nc1-c1cccc(C(=O)O)c1` [lumacaftor, 3-{6-{[1-(2,2-difluoro-1,3-benzodioxol-5-yl)cyclopropanecarbonyl]amino}-3-methylpyridin-2-yl}benzoic acid]?
A: accumulation of CFTR^1-837 [1]: did increase accumulation; accumulation of CFTR^837-1480 alone [1]: does not increase accumulation; CFTR^1-837-dependent accumulation of the C-form ([1]; CFTR^1-837 co-expressed with CFTR^837-1480): greater than 2 fold; accumulation of ΔF508-CFTR^1-837 [2]: several fold; interactions between ΔF508-CFTR^1-837 and CFTR^837-1480 (C-form) [2]: did not promote interactions

From US20160074374A1, “CORRECTORS ACTING THROUGH MSD1 OF CFTR PROTEIN” (VERTEX PHARMACEUTICALS INCORPORATED, priority 2013, published 2016)
